A word on the pIC50: it is the IC50 on a negative log10 scale, so that one unit is a factor of ten. A word on the pEC50: it is the EC50 on a negative log10 scale, so that one unit is a factor of ten.

pEC50, pIC50: −log10 of the molar value.

Experiment [1] addresses Human immunodeficiency virus type 1 protease (Human immunodeficiency virus 1, UniProt Q72874). In words: Inhibition of wild type HIV1 protease expressed in Escherichia coli BL21 DE3 assessed as cleavage of fluorogenic substrate using EDANS-RESGIFLETSKR-DABCYL preincubated for 15 mins with compound followed by substrate addition and measured after 60 mins by microplate reader analysis.

Experiment [2] deals with Human immunodeficiency virus 1. Description: Antiviral activity against HIV-1 IIIB infected in human MT4 cells assessed as inhibition of virus-induced cell death preincubated for 1 hr with compound followed by viral infection measured after 5 days by MTT assay. In kind it is functional, organism-based. Conditions: Human immunodeficiency virus 1, IIIB. Background: Tetrazolium dyes change colour on reduction, which living cells bring about.

As for `COc1ccc(CN2C[C@H](O)[C@@](CCC(C)C)(c3ccc(S(C)(=O)=O)cc3)C2=O)cc1` (mixture of isomers), the pIC50 in experiment [1] is 5.70. Further, the pEC50 in experiment [2] was below 4.70.

As to `COc1ccc(CN2C[C@H](O)[C@@](CCC(C)C)(c3ccc(S(C)(=O)=O)cc3OC(C)C)C2=O)cc1` (mixture of isomers), the negative-log IC50 (pIC50) in experiment [1] was 7.09. Also, the pEC50 in experiment [2] is 4.96.

Turning to `COc1ccc(CN2C[C@H](O)[C@@](Cc3ccc(F)cc3)(c3ccc(S(C)(=O)=O)cc3)C2=O)cc1` (racemic), in experiment [1], the pIC50 was 4.27.

As for `COc1ccc(CN2C[C@H](O)[C@@](CCC(C)C)(c3ccc(S(C)(=O)=O)cc3O[C@@H](C)CO)C2=O)cc1` (mixture of isomers), the pIC50 in experiment [1] was 8.15. For the same compound, the pEC50 in experiment [2] was 6.07.

With `COc1ccc(CN2C[C@H](O)[C@@](CC(C)C)(c3ccc(S(C)(=O)=O)cc3)C2=O)cc1` (mixture of isomers), the pIC50 in experiment [1] is 4.47.

Take `COc1ccc(CN2C[C@@H](O)[C@@](Cc3ccc(F)cc3)(c3ccc(S(C)(=O)=O)cc3)C2=O)cc1` (mixture of isomers): in experiment [1], the pIC50 is 4.11.

For `CCC[C@]1(c2ccc(S(C)(=O)=O)cc2)C(=O)N(Cc2ccc(OC)cc2)C[C@@H]1O` (mixture of isomers), in experiment [1], the pIC50 is 4.49.

These data come from ChEMBL document CHEMBL5154858, “Pocket-to-Lead: Structure-Based De Novo Design of Novel Non-peptidic HIV-1 Protease Inhibitors Using the Ligand Binding Pocket as a Template” (J Med Chem, 2022).
